Test results published in ChEMBL document CHEMBL3217615, “Novel 3,5-bis(arylidiene)-4-piperidone based monocarbonyl analogs of curcumin: anticancer activity evaluation and mode of action study” (2014).

What was measured:
Assay type in all cases: functional
SN12C = assay: Growth inhibition of human SN12C cells after 48 hrs by sulforhodamine B assay
SK-OV-3 = assay: Growth inhibition of human SKOV3 cells assessed as cell growth at 10^-4 M after 48 hrs by sulforhodamine B assay; conditions: SK-OV-3, 48 h, read-out: Activity
NCI-H23 = assay: Growth inhibition of human NCI-H23 cells assessed as cell growth at 10^-7 M after 48 hrs by sulforhodamine B assay; conditions: NCI-H23, 48 h, read-out: Activity
SW-620 = assay: Growth inhibition of human SW620 cells assessed as cell growth at 10^-7 M after 48 hrs by sulforhodamine B assay; conditions: SW-620, 48 h, read-out: Activity
[1] = Growth inhibition of human NCI-ADR-RES cells after 48 hrs by sulforhodamine B assay
U-251 = assay: Growth inhibition of human U251 cells assessed as cell growth at 10^-7 M after 48 hrs by sulforhodamine B assay; conditions: U-251, 48 h, read-out: Activity
[2] = Growth inhibition of human OVCAR8 cells after 48 hrs by sulforhodamine B assay; conditions: OVCAR-8, 48 h
HOP-62 = assay: Growth inhibition of human HOP62 cells after 48 hrs by sulforhodamine B assay; conditions: HOP-62, 48 h
786-0 = assay: Growth inhibition of human 786-0 cells assessed as cell growth at 10^-7 M after 48 hrs by sulforhodamine B assay; conditions: 786-0, 48 h, read-out: Activity
HL-60(TB) [3] = assay: Growth inhibition of human HL-60(TB) cells assessed as cell growth at 10^-8 M after 48 hrs by sulforhodamine B assay; conditions: HL-60, 48 h
M14 = assay: Growth inhibition of human M14 cells assessed as cell growth at 10^-4 M after 48 hrs by sulforhodamine B assay; conditions: M14, 48 h, read-out: Activity
[4] = Growth inhibition of human NCI-ADR-RES cells assessed as cell growth at 10^-8 M after 48 hrs by sulforhodamine B assay
[5] = Growth inhibition of human OVCAR5 cells assessed as cell growth at 10^-4 M after 48 hrs by sulforhodamine B assay; conditions: OVCAR-5, 48 h, read-out: Activity
[6] = Growth inhibition of human NCI-ADR-RES cells assessed as cell growth at 10^-6 M after 48 hrs by sulforhodamine B assay; conditions: read-out: Activity
SK-MEL-5 = assay: Growth inhibition of human SK-MEL-5 cells assessed as cell growth at 10^-8 M after 48 hrs by sulforhodamine B assay; conditions: SK-MEL-5, 48 h
[7] = Growth inhibition of human MOLT4 cells assessed as cell growth at 10^-4 M after 48 hrs by sulforhodamine B assay; conditions: MOLT-4, 48 h, read-out: Activity
[8] = Growth inhibition of human UACC257 cells assessed as cell growth at 10^-6 M after 48 hrs by sulforhodamine B assay; conditions: UACC-257, 48 h, read-out: Activity
HCT-116 = assay: Growth inhibition of human HCT116 cells after 48 hrs by sulforhodamine B assay; conditions: HCT-116, 48 h
HL-60(TB) [9] = assay: Growth inhibition of human HL-60(TB) cells assessed as cell growth at 10^-6 M after 48 hrs by sulforhodamine B assay; conditions: HL-60, 48 h, read-out: Activity
SNB-75 = assay: Growth inhibition of human SNB75 cells assessed as cell growth at 10^-4 M after 48 hrs by sulforhodamine B assay; conditions: SNB-75, 48 h, read-out: Activity
RPMI-8226 = assay: Growth inhibition of human RPMI8226 cells after 48 hrs by sulforhodamine B assay; conditions: RPMI-8226, 48 h
DU-145 = assay: Growth inhibition of human DU145 cells after 48 hrs by sulforhodamine B assay; conditions: DU-145, 48 h
A549 = assay: Growth inhibition of human A549/ATCC cells assessed as cell growth at 10^-8 M after 48 hrs by sulforhodamine B assay; conditions: A549, 48 h
ACHN = assay: Growth inhibition of human ACHN cells assessed as cell growth at 10^-4 M after 48 hrs by sulforhodamine B assay; conditions: read-out: Activity
NCI-H322M = assay: Growth inhibition of human NCI-H322M cells after 48 hrs by sulforhodamine B assay
[10] = Growth inhibition of human BT549 cells after 48 hrs by sulforhodamine B assay; conditions: BT-549, 48 h
[11] = Growth inhibition of human HCT15 cells assessed as cell growth at 10^-7 M after 48 hrs by sulforhodamine B assay; conditions: HCT-15, 48 h, read-out: Activity
[12] = Growth inhibition of human OVCAR5 cells assessed as cell growth at 10^-7 M after 48 hrs by sulforhodamine B assay; conditions: OVCAR-5, 48 h, read-out: Activity
MCF7 = assay: Growth inhibition of human MCF7 cells after 48 hrs by sulforhodamine B assay; conditions: MCF7, 48 h
[13] = Growth inhibition of human RXF393 cells after 48 hrs by sulforhodamine B assay; conditions: RXF 393, 48 h
[14] = Growth inhibition of human SF295 cells assessed as cell growth at 10^-8 M after 48 hrs by sulforhodamine B assay; conditions: SF-295, 48 h
[15] = Growth inhibition of human UO31 cells assessed as cell growth at 10^-7 M after 48 hrs by sulforhodamine B assay; conditions: UO-31, 48 h, read-out: Activity
CAKI-1 = assay: Growth inhibition of human CAKI-1 cells after 48 hrs by sulforhodamine B assay; conditions: CAKI-1, 48 h
[16] = read-out: LC50 (the source's name)
[17] = read-out: pLC50 (the source's name) (converted)

O=C1/C(=C/c2ccc(Cl)cc2Cl)CN(S(=O)(=O)c2ccccc2)C/C1=C\c1ccc(Cl)cc1Cl
GI50 (SN12C): 245 nM
TGI (SN12C): 718 nM
CC50 (SN12C; [16]): > 100000 nM
growth at 100 µM (SK-OV-3): 24%
growth at 0.1 µM (NCI-H23): 104%
growth at 0.1 µM (SW-620): 96%
GI50 [1]: 1370 nM
TGI [1]: > 100000 nM
CC50 [1, 16]: > 100000 nM
growth at 0.1 µM (U-251): 86%
GI50 [2]: 286 nM
TGI [2]: 958 nM
CC50 [2, 16]: > 100000 nM
GI50 (HOP-62): 385 nM
TGI (HOP-62): > 100000 nM
CC50 (HOP-62; [16]): > 100000 nM
growth at 0.1 µM (786-0): 104%
GI50 (HL-60(TB) [3]): 562 nM
growth at 0.01 µM (HL-60(TB) [3]; read-out: Activity): 97%
CC50 (HL-60(TB) [3]; [17]): > 100000 nM
TGI (HL-60(TB) [3]; read-out: pTGI (converted)): 3980 nM
growth at 100 µM (M14): 31%
GI50 [4]: 1380 nM
LC50 [4]: > 100000 nM
growth at 0.01 µM ([4]; read-out: Activity): 105%
TGI ([4]; read-out: pTGI (converted)): > 100000 nM
growth at 100 µM [5]: -2%
growth at 1 µM [6]: 54%
growth at 0.01 µM (SK-MEL-5; read-out: Activity): 94%
CC50 (SK-MEL-5; [17]): > 100000 nM
TGI (SK-MEL-5; read-out: pTGI (converted)): > 100000 nM
growth at 100 µM [7]: -11%
growth at 1 µM [8]: 86%
GI50 (HCT-116): 198 nM
TGI (HCT-116): 424 nM
CC50 (HCT-116; [16]): 908 nM
growth at 1 µM (HL-60(TB) [9]): 36%
growth at 100 µM (SNB-75): -33%
GI50 (RPMI-8226): 225 nM
LC50 (RPMI-8226): > 100000 nM
TGI (RPMI-8226): 605 nM
GI50 (DU-145): 446 nM
TGI (DU-145): 18800 nM
CC50 (DU-145; [16]): > 100000 nM
GI50 (A549): 275 nM
LC50 (A549): > 100000 nM
growth at 0.01 µM (A549; read-out: Activity): 93%
TGI (A549; read-out: pTGI (converted)): 891 nM
growth at 100 µM (ACHN): -17%
GI50 (NCI-H322M): 680 nM
TGI (NCI-H322M): 3560 nM
CC50 (NCI-H322M; [16]): > 100000 nM
GI50 [10]: 987 nM
LC50 [10]: > 100000 nM
TGI [10]: 4210 nM
growth at 0.1 µM [11]: 90%
growth at 0.1 µM [12]: 94%
GI50 (MCF7): 305 nM
TGI (MCF7): 100000 nM
CC50 (MCF7; [16]): > 100000 nM
GI50 [13]: 1060 nM
TGI [13]: 2420 nM
CC50 [13, 16]: 5540 nM
GI50 [14]: 347 nM
LC50 [14]: > 100000 nM
growth at 0.01 µM ([14]; read-out: Activity): 91%
TGI ([14]; read-out: pTGI (converted)): 6610 nM
growth at 0.1 µM [15]: 93%
GI50 (CAKI-1): 1840 nM
TGI (CAKI-1): 5750 nM
CC50 (CAKI-1; [16]): > 100000 nM
